This is an account of results in patent US20230405028A1 (priority 2020, published 2023).

SMILES strings stand for the structures. Like-named read-outs stand apart in the source and are kept apart here. A value given as a limit tells only on which side of the number the result lay.

One data set relates to iNOS. As to the kind of experiment: iNOS in HSIEC cells treated with TNF-α/IFN-γ. To be noted: 5, 10, 20, 40 μM. The format is cell-based, human.
The subject of data set [1] is Human primary small intestinal epithelial cells (HSIEC).
The next data set has as its system COX-2. Kind of data set: COX-2 in HSIEC cells treated with TNF-α/IFN-γ (western blot, densitometry). Type of data set: cell-based, human. To be noted: single agent, escalating doses. How it is done:
Cell Culture: Human primary small intestinal epithelial cells (HSIEC), purchased from Cell Biologics were cultured in Epithelial Cell Medium/w Kit. HSIEC cells were incubated at 37° C. in a humidified atmosphere of 5% CO2. HSIEC cells were treated with mycoplasma removal reagent BM-Cyclin (Roche) to ensure mycoplasma negative before treatment.
To do so, COX-2, an enzyme which mediates the bioconversion of arachidonic acid to inflammatory prostaglandins (PGs), was measured via densitometry. GAPDH was used as a reference housekeeping marker for relative densitometry measures. […] Ethanol or DMSO was used, as indicated in the figures, as a vehicle for dilution and as a negative control showing the amount of the inflammatory marker present when inflammation was not induced.
Increasing doses of each molecule of interest, or each combination of molecules of interest, were then distributed to the HSIEC cells treated to induce inflammatory response. Inflammatory markers COX-2 and/or IL-6 were assessed at specific timepoints after induction of inflammation for protein content marker measured via western blot. GAPDH was used as a reference housekeeping marker for relative densitometry measures of protein content.
In general terms: A western blot detects proteins with antibodies after separation by electrophoresis.

The target of the next data set is 5HT2A (Homo sapiens, UniProt P28223). To be noted: printed with a question mark in the Average Dose column; cited from earlier work.
5HT2A, sequence (P28223 whole entry): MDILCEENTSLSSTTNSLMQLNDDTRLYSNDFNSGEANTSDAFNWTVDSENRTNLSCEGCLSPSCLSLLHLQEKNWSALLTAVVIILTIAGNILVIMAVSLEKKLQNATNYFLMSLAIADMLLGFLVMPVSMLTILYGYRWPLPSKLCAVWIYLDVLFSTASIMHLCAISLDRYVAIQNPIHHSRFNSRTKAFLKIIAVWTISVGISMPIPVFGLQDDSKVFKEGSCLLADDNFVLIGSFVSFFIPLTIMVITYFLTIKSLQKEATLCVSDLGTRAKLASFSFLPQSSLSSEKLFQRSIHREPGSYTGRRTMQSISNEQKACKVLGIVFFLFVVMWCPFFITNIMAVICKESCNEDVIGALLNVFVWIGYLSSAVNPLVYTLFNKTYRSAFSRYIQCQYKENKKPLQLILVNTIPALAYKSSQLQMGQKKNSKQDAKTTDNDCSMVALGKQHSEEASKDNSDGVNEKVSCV
Another data set has as its system A-172 glioblastoma cells. Kind of data set: MTT cell viability assay in A-172 cells. As to conditions: Psilocybin + Eugenol section, 25 μM EUG. On the technique in general: Formazan colour is commonly taken as a measure of viable cells.
The subject of a further data set is TRPA1. As to conditions: TRPA1 overexpressing CHO cells and trigeminal neurons; cited from earlier work.

On to `CC(=O)Oc1cccc2[nH]cc(CCN(C)C)c12` [4-ACO-DMT, 3-[2-(dimethylamino)ethyl]-4-acetoxyindole], for which, in the data set with iNOS, the “dose reducing iNOS to the greatest extent” value came out at 10 µM and the “doses resulting in reduction of iNOS” value was “all doses”. The “effect on cell growth / cellular metabolic activity (MTT, words)” value in data set [1] is given as “increase growth of cells”. Besides, in the data set with COX-2, the “doses reducing COX-2 to the greatest extent” value was 40 µM.

With `CCN(C(=O)[C@@H]1C=C2c3cccc4[nH]cc(c34)C[C@H]2N(C)C1)C1CC1` [ECPLA, D-N-ethyl-N-cyclopropyllysergamide], the “potency of LSD” value at 5HT2A is on record as 40% potency % potency of LSD.

As to `C=CCc1ccc(O)c(OC)c1` [EUG], the “Cellular Metabolic Activity” value came to 0.202 with A-172 glioblastoma cells (24 h); 0.297 in the data set with A-172 glioblastoma cells (48 h); 0.473 with A-172 glioblastoma cells (72 h); 0.319 with A-172 glioblastoma cells (96 h); 0.134 in the data set with A-172 glioblastoma cells (time 0).

For `CCC(CC)NC(=O)[C@@H]1C=C2c3cccc4[nH]cc(c34)C[C@H]2N(C)C1` [LSP, D-lysergic acid 3-pentyl amide], the “potency of LSD” value on 5HT2A is reported as 75% potency % potency of LSD.

Consider `CCCCCc1cc(O)c2c(c1)OC(C)(C)[C@@H]1CCC(C)=C[C@@H]21` [THC, delta-9-tetrahydrocannabinol], for which, in the data set with TRPA1, the TRPA1 activation result is on record as “activate TRPA1”.

Regarding `CCCCCc1cc(O)c2c(c1)OC(C)(C)c1ccc(C)cc1-2` [cannabinol], in the data set on TRPA1, the TRPA1 activation result is “activate TRPA1”.

On to `COc1cc(CNC(=O)CCCC/C=C/C(C)C)ccc1O` [capsaicin], for which, in data set [1], the “effect on cell growth / cellular metabolic activity (MTT, words)” value is “All initial doses of capsaicin were found to be inhibitory”. Moreover, the “Cellular Metabolic Activity” value in data set [1] (0.5 μM, 24 h) was found to be 0.088; in data set [1] (0.5 μM, 48 h), 0.154; in data set [1] (0.5 μM, 72 h) it was 0.288; in data set [1] (0.5 μM, 96 h), 0.469; in data set [1] (0.5 μM, time 0), 0.068; in data set [1] (1 μM, 24 h), 0.084. Besides, the “Cellular Metabolic Activity” value in data set [1] (1 μM, 48 h) is reported as 0.150; in data set [1] (1 μM, 72 h), 0.326; in data set [1] (1 μM, 96 h), 0.502; in data set [1] (1 μM, time 0) it was 0.066; in data set [1] (5 μM, 24 h) it was 0.080; in data set [1] (5 μM, 48 h) it was 0.148. The “Cellular Metabolic Activity” value in data set [1] (5 μM, 72 h) came out at 0.296; in data set [1] (5 μM, 96 h), 0.477; in data set [1] (5 μM, time 0), 0.068; in data set [1] (10 μM, 24 h) it was 0.075; in data set [1] (10 μM, 48 h), 0.174; in data set [1] (10 μM, 72 h), 0.331. For the same molecule, the “Cellular Metabolic Activity” value was determined as 0.708 in data set [1] (10 μM, 96 h); 0.040 in data set [1] (10 μM, time 0); 0.062 in data set [1] (50 μM, 24 h); 0.155 in data set [1] (50 μM, 48 h); 0.292 in data set [1] (50 μM, 72 h); 0.681 in data set [1] (50 μM, 96 h). The “Cellular Metabolic Activity” value in data set [1] (50 μM, time 0) is given as 0.036; in data set [1] (100 μM, 24 h), 0.063; in data set [1] (100 μM, 48 h), 0.150; in data set [1] (100 μM, 72 h), 0.272; in data set [1] (100 μM, 96 h), 0.623; in data set [1] (100 μM, time 0), 0.036. Also, the “Cellular Metabolic Activity” value in data set [1] (200 μM, 24 h) turned out to be 0.044; in data set [1] (200 μM, 48 h) it was 0.082; in data set [1] (200 μM, 72 h), 0.144; in data set [1] (200 μM, 96 h), 0.231; in data set [1] (200 μM, time 0), 0.040; in data set [1] (400 μM, 24 h), 0.016. For the same molecule, the “Cellular Metabolic Activity” value in data set [1] (400 μM, 48 h) came to 0.031; in data set [1] (400 μM, 72 h), 0.016; in data set [1] (400 μM, 96 h), 0.018; in data set [1] (400 μM, time 0) it was 0.039; in data set [1] (800 μM, 24 h) it was 0; in data set [1] (800 μM, 48 h), 0. The “Cellular Metabolic Activity” value in data set [1] (800 μM, 72 h) is reported as 0; in data set [1] (800 μM, 96 h), 0; in data set [1] (800 μM, time 0), 0.041. Besides, the “doses showing no effect (MTT)” value in data set [1] (human) was less than 10 µM.

As to `O=C(c1ccc(F)cc1)C1CCN(CCn2c(=O)[nH]c3ccccc3c2=O)CC1` [ketanserin, reference compound], the “concentration above which inhibitory effect / significant toxicity (MTT)” value in data set [1] (human) is recorded as “above 20 μM”. In the data set with COX-2, the “doses resulting in reduction of COX-2” value was “none of the doses”.

`O=C(/C=C/C=C/c1ccc2c(c1)OCO2)N1CCCCC1` [piperine]: the “effect on cell growth / cellular metabolic activity (MTT, words)” value in data set [1] is listed as “could only be studied at very low dose”. For the same molecule, the “Cellular Metabolic Activity” value came to 0.077 in data set [1] (5 μM, 24 h); 0.170 in data set [1] (5 μM, 48 h); 0.278 in data set [1] (5 μM, 72 h); 0.517 in data set [1] (5 μM, 96 h); 0.035 in data set [1] (5 μM, time 0); 0.073 in data set [1] (10 μM, 24 h). The “Cellular Metabolic Activity” value turned out to be 0.183 in data set [1] (10 μM, 48 h); 0.271 in data set [1] (10 μM, 72 h); 0.438 in data set [1] (10 μM, 96 h); 0.026 in data set [1] (10 μM, time 0); 0.075 in data set [1] (20 μM, 24 h); 0.166 in data set [1] (20 μM, 48 h). For the same molecule, the “Cellular Metabolic Activity” value in data set [1] (20 μM, 72 h) was 0.268; in data set [1] (20 μM, 96 h), 0.445; in data set [1] (20 μM, time 0) it was 0.022; in data set [1] (40 μM, 24 h), 0.069; in data set [1] (40 μM, 48 h), 0.169; in data set [1] (40 μM, 72 h) it was 0.226. In addition, the “Cellular Metabolic Activity” value is reported as 0.423 in data set [1] (40 μM, 96 h); 0.025 in data set [1] (40 μM, time 0); 0.068 in data set [1] (80 μM, 24 h); 0.171 in data set [1] (80 μM, 48 h); 0.224 in data set [1] (80 μM, 72 h); 0.391 in data set [1] (80 μM, 96 h). Also, the “Cellular Metabolic Activity” value in data set [1] (80 μM, time 0) came out at 0.026; in data set [1] (100 μM, 24 h) it was 0.071; in data set [1] (100 μM, 48 h), 0.175; in data set [1] (100 μM, 72 h), 0.248; in data set [1] (100 μM, 96 h), 0.410; in data set [1] (100 μM, time 0) it was 0.030. Further, the “Cellular Metabolic Activity” value in data set [1] (200 μM, 24 h) was found to be 0.071; in data set [1] (200 μM, 48 h), 0.171; in data set [1] (200 μM, 72 h), 0.243; in data set [1] (200 μM, 96 h) it was 0.426; in data set [1] (200 μM, time 0) it was 0.027; in data set [1] (400 μM, 24 h), 0.068. The “Cellular Metabolic Activity” value is reported as 0.191 in data set [1] (400 μM, 48 h); 0.187 in data set [1] (400 μM, 72 h); 0.255 in data set [1] (400 μM, 96 h); 0.031 in data set [1] (400 μM, time 0). Also, the “doses reducing COX-2 to the greatest extent” value in the data set on COX-2 was found to be 2.5 µM.
